In US8198307B2, “Imidazole derivatives having aryl piperidine substituent, method for preparation thereof and pharmaceutical compositions containing same” (Korea Research Institute of Chemical Technology, priority 2007, dated 2012) one finds IC50 data, which are given here for 26 compounds.

For orientation: IC50 means the concentration that inhibits the measured activity by half.

In this experiment the target is T1, MCH R1 (melanine-concentrating hormone receptor-1) (Homo sapiens, UniProt Q99705).
T1 construct: purchased Euroscreen, Gosselies, Belgium
T1 sequence (Q99705 whole entry, species assumed): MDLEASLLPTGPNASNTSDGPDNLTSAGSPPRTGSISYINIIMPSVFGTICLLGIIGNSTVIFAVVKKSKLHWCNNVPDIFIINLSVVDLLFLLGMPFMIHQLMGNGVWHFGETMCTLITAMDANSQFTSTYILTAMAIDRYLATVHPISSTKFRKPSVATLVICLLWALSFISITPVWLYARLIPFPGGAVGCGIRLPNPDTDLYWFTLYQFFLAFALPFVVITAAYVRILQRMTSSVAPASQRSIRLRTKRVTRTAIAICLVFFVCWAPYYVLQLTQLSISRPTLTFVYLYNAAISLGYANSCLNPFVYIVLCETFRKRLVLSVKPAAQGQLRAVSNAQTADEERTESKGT
Nature of the experiment: Inhibitory effects on MCH R1 binding (Eu-MCH time-resolved fluorescence binding assay). As to conditions: concentration inhibiting the binding of MCH (Eu-MCH, 2 nM) to MCH R1 by 50% in vitro; TRF readout; test range 1 nM to 10 μM; read-out: IC50. The essentials: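 Receptor membranes were incubated 90 min at room temperature with 2 nM Eu-MCH and test compound (1 nM–10 μM final) in 25 mM HEPES pH 7.4, 5 mM MgCl2, 1 mM CaCl2, 0.5% BSA, then filter-washed. Nonspecific binding was defined with 0.5 μM MCH. Time-resolved fluorescence (ex 340/em 615 nm) gave percent inhibition of specific binding.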
As to `CC(=O)Nc1cccc(C2CCN(CCCn3c(-c4ccccc4)nc4ccncc43)CC2)c1` [Example 72, 2-phenyl-3-{3-[4-(3-acetylaminophenyl)piperidin-1-yl]propyl}-3H-imidazo[4,5-c]pyridine], the IC50 amounted to 260 nM.

Consider `CC(=O)Nc1cccc(C2CCN(CCCn3c(-c4cccc(Cl)c4)nc4ccc([N+](=O)[O-])cc43)CC2)c1` [Example 41, 2-(3-chlorophenyl)-1-{3-[4-(3-acetylaminophenyl)piperidin-1-yl]propyl}-6-nitro-1H-benzimidazole], for which the IC50 was 635 nM.

In the case of `CC(=O)Nc1cccc(C2CCN(CCCn3c(-c4cncc(Br)c4)nc4ccccc43)CC2)c1` [Example 112, 2-(5-bromopyridin-3-yl)-1-{3-[4-(3-acetylaminophenyl)piperidin-1-yl]propyl}-1H-benzimidazole], the IC50 was determined as 5 nM.

As for `CC(=O)Nc1cccc(C2CCN(CCCn3c(-c4ccc(C#N)cc4)nc4ccccc43)CC2)c1` [Example 51, 2-(4-cyanophenyl)-1-{3-[4-(3-acetylaminophenyl)piperidin-1-yl]propyl}-1H-benzimidazole], the IC50 was found to be 16 nM.

For the compound `CC(=O)Nc1cccc(C2CCN(CCCn3c(-c4ccc(F)cc4)nc4ccc(Cl)cc43)CC2)c1` [Example 30, 2-(4-fluorophenyl)-1-{3-[4-(3-acetylaminophenyl)piperidin-1-yl]propyl}-6-chloro-1H-benzimidazole], the IC50 was 13 nM.

`CC(=O)Nc1cccc(C2CCN(CCCn3c(-c4ccc(Cl)cc4)nc4cc(C)cc(C)c43)CC2)c1` [Example 49, 2-(4-chlorophenyl)-1-{3-[4-(3-acetylaminophenyl)piperidin-1-yl]propyl}-5,7-dimethyl-1H-benzimidazole]: the IC50 turned out to be 197 nM.

Consider `COc1ccc2c(c1)nc(-c1ccco1)n2CCCN1CCC(c2cccc(NC(C)=O)c2)CC1` [Example 119, 2-(furan-2-yl)-5-methoxy-1-{3-[4-(3-acetamidophenyl)piperidin-1-yl]propyl}-1H-benzimidazole], for which the IC50 came to 249 nM.

Turning to `CC(=O)Nc1cccc(C2CCN(CCCn3c(-c4ccc(Oc5ccccc5)cc4)nc4ccccc43)CC2)c1` [Example 47, 2-(4-phenoxyphenyl)-1-{3-[4-(3-acetylaminophenyl)piperidin-1-yl]propyl}-1H-benzimidazole], the IC50 stood at 42 nM.

Regarding `CC(=O)Nc1cccc(C2CCN(CCCn3c(-c4ccc(Cl)cc4)nc4ccc(C)cc43)CC2)c1` [Example 24, 2-(4-chlorophenyl)-1-{3-[4-(3-acetylaminophenyl)piperidin-1-yl]propyl}-6-methyl-1H-benzimidazole], the IC50 turned out to be 10 nM.

Consider `CC(=O)Nc1cccc(C2CCN(CCCn3c(-c4ccc(C)s4)nc4ccccc43)CC2)c1` [Example 110, 2-(5-methylthiophen-2-yl)-1-{3-[4-(3-acetylaminophenyl)piperidin-1-yl]propyl}-1H-benzimidazole], for which the IC50 was determined as 14 nM.

As to `COc1ccccc1-c1nc2ccccc2n1CCCN1CCC(c2cccc(NC(C)=O)c2)CC1` [Example 17, 2-(2-methoxyphenyl)-1-{3-[4-(3-acetylaminophenyl)piperidin-1-yl]propyl}-1H-benzimidazole], the IC50 came to 747 nM.

For `CC(=O)Nc1cccc(C2CCN(CCCn3c(-c4ccsc4)nc4cc(C)ccc43)CC2)c1` [Example 120, 5-methyl-2-(thiophen-3-yl)-1-{3-[4-(3-acetamidophenyl)piperidin-1-yl]propyl}-1H-benzimidazole], the IC50 came to 1 nM.

Take `CC(=O)Nc1cccc(C2CCN(CCn3c(-c4ccc(Cl)cc4)nc4ccccc43)CC2)c1` [Example 2, 2-(4-chlorophenyl)-1-{2-[4-(3-acetylaminophenyl)piperidin-1-yl]ethyl}-1H-benzimidazole]: the half-inhibitory concentration (IC50) was 6000 nM.

For the compound `CC(=O)Nc1cccc(C2CCN(CCCn3c(Cc4ccccn4)nc4ccccc43)CC2)c1` [Example 125, 2-(pyridin-2-ylmethyl)-1-{3-[4-(3-acetamidophenyl)piperidin-1-yl]propyl}-1H-benzimidazole], the IC50 was determined as 2 nM.

Turning to `CC(=O)Nc1cccc(C2CCN(CCCn3c(-c4ccccc4)nc4cc(C)c(C)cc43)CC2)c1` [Example 21, 2-phenyl-1-{3-[4-(3-acetylaminophenyl)piperidin-1-yl]propyl}-5,6-dimethyl-1H-benzimidazole], the IC50 was determined as 5 nM.

For the compound `CC(=O)Nc1cccc(C2CCN(CCCn3c(-c4ccccc4)nc4ccc(C)cc43)CC2)c1` [Example 23, 2-phenyl-1-{3-[4-(3-acetylaminophenyl)piperidin-1-yl]propyl}-6-methyl-1H-benzimidazole], the IC50 turned out to be 16 nM.

With `CC(=O)Nc1cccc(C2CCN(CCCn3c(-c4ccc(C(F)(F)F)cc4)nc4ccccc43)CC2)c1` [Example 45, 2-(4-trifluoromethylphenyl)-1-{3-[4-(3-acetylaminophenyl)piperidin-1-yl]propyl}-1H-benzimidazole], the IC50 is 3 nM.

Consider `CC(C)C(=O)Nc1cccc(C2CCN(CCCn3c(-c4ccc(Cl)cc4)nc4ccccc43)CC2)c1` [Example 64, 2-(4-chlorophenyl)-1-{3-[4-(3-isobutyrylaminophenyl)piperidin-1-yl]propyl}-1H-benzimidazole], for which the IC50 turned out to be 5 nM.

On to `CC(=O)Nc1cccc(C2CCN(CCCn3c(-c4ccccc4)nc4ccc(C)nc43)CC2)c1` [Example 69, 5-methyl-2-phenyl-3-{3-[4-(3-acetylaminophenyl)piperidin-1-yl]propyl}-3H-imidazo[4,5-b]pyridine], for which the IC50 is 22 nM.

`CCCCc1nc2cc(-c3ccc([N+](=O)[O-])cc3)c(C)nc2n1CCCN1CCC(c2cccc(NC(=O)C(C)C)c2)CC1` [Example 103, 2-butyl-5-methyl-6-(4-nitrophenyl)-3-{3-[4-(3-isobutyrylaminophenyl)piperidin-1-yl]propyl}-3H-imidazo[4,5-b]pyridine]: the IC50 turned out to be 20 nM.

As for `CC(=O)Nc1cccc(C2CCN(CCCn3c(-c4ccccc4)nc4nc(C)ccc43)CC2)c1` [Example 75], the IC50 came out at 23 nM.

With `CCCCc1nc2cc(-c3ccccc3)c(C=O)nc2n1CCCN1CCC(c2cccc(NC(=O)C(C)C)c2)CC1` [Example 102, 2-butyl-5-formyl-6-phenyl-3-{3-[4-(3-isobutyrylaminophenyl)piperidin-1-yl]propyl}-3H-imidazo[4,5-b]pyridine], the IC50 came out at 260 nM.

Take `CC(=O)Nc1cccc(C2CCN(CCCn3c(-c4ccc(Cl)cc4)nc4ccccc43)CC2)c1` [Example 4, 2-(4-chlorophenyl)-1-{3-[4-(3-acetylaminophenyl)piperidin-1-yl]propyl}-1H-benzimidazole]: the IC50 came out at 1 nM.

`CC(=O)Nc1cccc(C2CCN(CCCn3c(-c4cccc(C)c4)nc4ccccc43)CC2)c1` [Example 79, 2-(m-tolyl)-1-{3-[4-(3-acetylaminophenyl)piperidin-1-yl]propyl}-1H-benzimidazole]: the IC50 is 20 nM.

`CC(=O)Nc1cccc(C2CCN(CCCn3c(-c4ccc(Cl)cc4)nc4cc(C)c(C)cc43)CC2)c1` [Example 22, 2-(4-chlorophenyl)-1-{3-[4-(3-acetylaminophenyl)piperidin-1-yl]propyl}-5,6-dimethyl-1H-benzimidazole]: the IC50 was 200 nM.

As to `CC(=O)Nc1cccc(C2CCN(CCCn3c(-c4ccc(Cl)c(Cl)c4)nc4ccccc43)CC2)c1` [Example 12, 2-(3,4-dichlorophenyl)-1-{3-[4-(3-acetylaminophenyl)piperidin-1-yl]propyl}-1H-benzimidazole], the half-inhibitory concentration (IC50) was determined as 24 nM.
